Experimental findings from ChEMBL document CHEMBL1201862, “PubChem BioAssay data set” (2004) are described below.

In one assay the target is Protein Tat (Human immunodeficiency virus type 1 group M subtype B (isolate HXB2)(HIV-1), UniProt P04608). The class given is functional.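 Also: tat binding to TAR RNA read out by fluorescence polarization.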
Assay [1] in a line: inhibitors of Vif binding to APOBEC3G peptide, primary screen, biochemical, TR-FRET, GST-Vif 1-94, biotin-A3G peptide, dose response retest (AID 1117319).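 Also: TR-FRET signal of purified GST-Vif binding a biotinylated A3G peptide; inhibitors lower the FRET signal by blocking Vif and A3G binding.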 The class given is functional. (In general: Time-resolved FRET reads energy transfer from a long-lived donor to a nearby acceptor.)
The next assay addresses T1, Leucine aminopeptidase (Plasmodium falciparum 3D7, UniProt Q8IL11).
T1 sequence (Q8IL11 whole entry): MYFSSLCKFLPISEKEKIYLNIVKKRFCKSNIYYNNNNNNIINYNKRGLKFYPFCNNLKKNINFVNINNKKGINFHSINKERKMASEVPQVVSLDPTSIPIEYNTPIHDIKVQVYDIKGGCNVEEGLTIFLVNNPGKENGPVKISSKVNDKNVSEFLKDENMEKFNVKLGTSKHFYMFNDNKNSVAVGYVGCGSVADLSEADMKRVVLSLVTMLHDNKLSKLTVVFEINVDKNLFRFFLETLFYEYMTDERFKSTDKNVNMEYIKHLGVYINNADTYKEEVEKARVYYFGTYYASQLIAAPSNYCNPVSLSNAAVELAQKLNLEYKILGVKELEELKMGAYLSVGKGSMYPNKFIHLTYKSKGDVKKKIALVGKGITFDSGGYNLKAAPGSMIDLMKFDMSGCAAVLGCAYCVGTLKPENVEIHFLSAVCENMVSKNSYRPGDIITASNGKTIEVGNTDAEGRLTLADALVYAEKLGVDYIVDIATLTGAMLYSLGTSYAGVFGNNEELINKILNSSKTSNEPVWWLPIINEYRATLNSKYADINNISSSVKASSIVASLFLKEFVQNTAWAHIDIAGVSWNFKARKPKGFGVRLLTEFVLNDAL
Kind of assay: P. falciparum M17LAP inhibitors, primary screen, biochemical, fluorogenic H-Leu-NHMec substrate, 1536-well (AID 1619). The class given is functional.

Assay [2] has as its target Mitogen-activated protein kinase 10 (Homo sapiens, UniProt P53779). Kind of assay: Dose response biochemical screening assay for inhibitors of c-Jun N-Terminal Kinase 3 (JNK3). [Related pubchem assays: 746 ].
Another assay addresses Major prion protein (Homo sapiens, UniProt P04156). The assay is classed as functional, cell-based.
The nature of assay [3]: cells.
A further assay concerns the target Beta-galactosidase (Escherichia coli, UniProt Q8VNN2). In words: Dose response counterscreen for EBI2 assay utilizing the enzyme, b-galactosidase. The assay is classed as functional.
The target in assay [4] is G-protein coupled receptor 183 (Homo sapiens, UniProt P32249). In words: Dose-response confirmation of small molecule antagonists of the EBI2 receptor via a luminescent beta-arrestin assay. The class given is functional.
Assay [5] addresses T2, Low molecular weight phosphotyrosine protein phosphatase (Homo sapiens, UniProt P24666).
T2 sequence (P24666 whole entry): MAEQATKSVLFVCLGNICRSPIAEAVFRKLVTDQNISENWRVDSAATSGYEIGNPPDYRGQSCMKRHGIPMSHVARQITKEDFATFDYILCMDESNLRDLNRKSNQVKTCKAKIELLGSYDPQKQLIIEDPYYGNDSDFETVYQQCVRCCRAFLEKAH
Kind of assay: LMPTP phosphatase inhibitors, dose response, biochemical, OMFP substrate, fluorescence intensity, set 2 (AID 743307). The class given is functional.

Assay [6] deals with T2, Low molecular weight phosphotyrosine protein phosphatase. Kind of assay: LMPTP phosphatase inhibitors, colorimetric pNPP readout, dose response, orthogonal assay, biochemical, absorbance, pNPP substrate, LMPTP-A isoform, set 2 (AID 743308). The assay is classed as functional.
The nature of assay [7]: P. falciparum Dd2 growth inhibitors, dose response, SYBR Green, cherry-picked samples (AID 1159567). The class given is functional, cell-based.
Assay [8] can be described thus: HepG2 cell cytotoxicity, dose response, cytotoxicity control, cherry-picked samples (AID 1159577). The class given is functional, cell-based.
Assay [9] is described as follows: P. falciparum 3D7-ScDHODH growth inhibitors, dose response, SYBR Green, dry powder samples (AID 1159570).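 Also: parasite growth measured after 72 hours of compound exposure.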 The assay is classed as functional, cell-based.
Assay [10] is described as follows: HepG2 cell cytotoxicity, dose response, cytotoxicity control, plate reader, dry powder samples (AID 1159569).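 Also: inhibitor potency with signal falling toward the positive control level.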 The class given is functional, cell-based.
The nature of assay [11]: P. falciparum Dd2 growth inhibitors, dose response, SYBR Green, dry powder samples (AID 1159566).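 Also: potency for growth inhibition with lower SYBR green DNA signal.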 The class given is functional, cell-based.
Assay [12] can be described thus: P. falciparum ATP4 D1247Y mutant growth inhibitors, dose response, NITD609-resistant line, SYBR Green, dry powder (AID 1159571).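 Also: parasites synchronized at ring stage by sorbitol before testing.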 The assay is classed as functional, cell-based.
Assay [13] concerns the target T3, Calpain-2 catalytic subunit (Sus scrofa, UniProt P43367).
T3 sequence (P43367 whole entry): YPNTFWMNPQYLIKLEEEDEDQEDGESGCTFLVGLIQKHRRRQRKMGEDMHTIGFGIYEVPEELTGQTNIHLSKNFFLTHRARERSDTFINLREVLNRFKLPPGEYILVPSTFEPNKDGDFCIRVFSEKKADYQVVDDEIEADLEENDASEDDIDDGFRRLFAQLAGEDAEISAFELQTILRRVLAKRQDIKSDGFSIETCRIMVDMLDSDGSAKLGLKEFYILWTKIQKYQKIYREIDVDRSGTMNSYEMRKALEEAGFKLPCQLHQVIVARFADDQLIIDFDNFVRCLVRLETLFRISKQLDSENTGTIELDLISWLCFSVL
In words: pig calpain II inhibitor potency, dose response, biochemical, fluorogenic peptide substrate (AID 1420). The class given is functional.

A further assay addresses Nonstructural protein 1 (Influenza A virus, UniProt Q194T2). The assay is classed as functional, Influenza A virus (A/California/07/2009(H1N1)).
In assay [14] the target is T4, Heat shock factor protein 1 (Mus musculus, UniProt P38532).
T4 sequence (P38532 whole entry): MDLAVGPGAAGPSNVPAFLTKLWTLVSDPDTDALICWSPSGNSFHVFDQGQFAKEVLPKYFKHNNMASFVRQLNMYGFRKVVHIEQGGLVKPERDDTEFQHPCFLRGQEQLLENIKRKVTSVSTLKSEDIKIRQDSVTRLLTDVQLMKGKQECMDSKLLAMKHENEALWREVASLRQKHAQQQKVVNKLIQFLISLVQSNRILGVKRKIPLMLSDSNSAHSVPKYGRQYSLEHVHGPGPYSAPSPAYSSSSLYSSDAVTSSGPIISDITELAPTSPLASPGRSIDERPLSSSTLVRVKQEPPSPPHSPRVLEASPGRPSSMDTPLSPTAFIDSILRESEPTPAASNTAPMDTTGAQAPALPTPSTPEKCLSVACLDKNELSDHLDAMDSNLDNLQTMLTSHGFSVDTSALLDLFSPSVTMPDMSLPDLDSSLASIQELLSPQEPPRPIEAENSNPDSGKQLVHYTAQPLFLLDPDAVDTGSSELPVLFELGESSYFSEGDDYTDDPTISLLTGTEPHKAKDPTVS
In words: HSF1 potentiators in luciferase reporter cells, confirmation, cell-based, NIH3T3, luminescence, dose retest (AID 435004).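 Also: stress induced by proteasome inhibitor MG132 added 30 min after compound; luciferase reporter driven by HSF1 response element in NIH3T3 cells; actives raise luminescence as potentiators of the MG132 stress response.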 The assay is classed as functional.

The next assay concerns INS1. In words: beta cell apoptosis inhibitors, cytokine rescue, dose response, luminescence, retest (AID 449756).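 Also: cell death triggered by IL-1 beta plus TNF-alpha plus IFN-gamma mixture; protective hits raise ATP signal compared with cytokine alone wells.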 The class given is functional, cell-based. To be noted: Rattus norvegicus.
The nature of assay [15]: A375 melanoma cell viability loss, dose response, counter-screen for MITF inhibitor project, CellTiter-Glo luminescence, dry powder, set 4 (AID 624364).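 Also: A375 melanoma cells are MITF independent so this is a counter screen.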 The assay is classed as functional, cell-based. The following applies: A-375.
Assay [16] in a line: A375 melanoma cell cytotoxicity, dose response, counter-screen for MITF inhibitor project, CellTiter-Glo luminescence, dry powder, set 7 (AID 624490). The class given is functional, cell-based. To be noted: A-375.
The nature of assay [17]: SK-MEL-5 parental line viability, dose response, MITF inhibitor project, cell-based, CellTiter-Glo, dry powder, set 6 (AID 624429). The assay is classed as functional.
Assay [18] is described as follows: MITF Orthogonal Assay: SK-MEL-5 CTG Assay Measured in Cell-Based System Using Plate Reader - 2084-02_Inhibitor_Dose_DryPowder_Activity_Set5. The assay is classed as functional.
Assay [19] is described as follows: A375 melanoma cell cytotoxicity, dose response, counter-screen for MITF inhibitor project, CellTiter-Glo luminescence, dry powder, set 6 (AID 624488). The assay is classed as functional, cell-based.
A short description of assay [20]: A375 melanoma cell viability loss, dose response, counter-screen for MITF modulator project, CellTiter-Glo luminescence, dry powder, set 9 (AID 651591). The class given is functional, cell-based. To be noted: A-375.
Assay [21] is described as follows: MITF Measured in Cell-Based System Using Plate Reader - 2084-01_Inhibitor_Dose_DryPowder_Activity_Set6. The class given is functional.
The nature of assay [22]: A375 melanoma cell cytotoxicity, dose response, counter-screen for MITF inhibitor project, CellTiter-Glo luminescence, dry powder, set 2 (AID 624489).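 Also: actives are compounds lowering A375 viability meaning general cytotoxicity.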 The following applies: A-375. The assay is classed as functional, cell-based.
A short description of assay [23]: cytotoxicity in primary human melanocytes, dose response, cytotoxicity control, cell-based, plate reader, dry powder (AID 651920). The assay is classed as functional.
Assay [24] in a line: Dose-response inhibition of insulin secretion in a rat insulinoma line at 5 mM glucose (AID 1117331). The class given is functional, cell-based. To be noted: INS-1E.
A short description of assay [25]: cells. The assay is classed as functional, cell-based. To be noted: INS-1E.

SMILES strings stand for the structures. Several values for one entry are separate records, joined by “and”; a condition that tells them apart may be missing. Equal entries are not always repeated. Activity calls are given as the source filed them. Bounds are passed on as bounds.

Usually IC50 stands for the concentration needed to halve the response being measured. For the compound `COc1cc(/C=C(\CC(=O)O)c2nc3ccccc3s2)cc(OC)c1O`, the IC50 (on Protein Tat; in [1]) was > 100 µM (active) throughout.

On to `N#Cc1c(O)nc(SCC(=O)Nc2cccc(Cl)c2)nc1-c1ccco1`, for which the IC50 is 2.5 µM (active) on Leucine aminopeptidase, 29.7 µM (not active) in assay [2], 1.69 µM (active) at Major prion protein and > 138 µM (inactive) in “cells [3]”.

`O=C(/C=C/c1ccccc1)N1CCN(S(=O)(=O)c2ccc(F)cc2)CC1`: the results for the IC50 (on Beta-galactosidase; in [4]) were > 80 µM (inactive) and 0.626 µM (active), respectively.

Regarding `c1ccc(-c2nc(N3CCCC3)c3ccccc3n2)cc1`, the IC50 was 42.1 µM (inactive) in assay [5] and > 80 µM (inactive) in assay [6].

For orientation: AC50 means the concentration giving half of the maximal activity seen. `N#Cc1ccc(-c2ccc([C@H]3[C@@H]4CN(C(=O)C5CCCC5)C[C@H]3N4)cc2)cc1`: the half-maximal activity concentration (AC50) in assay [7] is 7.4 µM (active); in assay [8], > 39 µM (inactive).

On to `Cc1ccc(S(=O)(=O)N(C)C[C@H]2OCc3ccccc3-c3c(n(C)c4ccccc34)C(=O)N([C@@H](C)CO)C[C@H]2C)cc1`, for which the half-maximal activity concentration (AC50) in assay [9] was 3.19 µM (active); in [10] it was 9.17 µM (active); in assay [7], 2.23 µM (active); in [11], 2.01 µM (active); in assay [12] it was 2.63 µM (active).

As usually defined, the EC50 is the concentration at which the effect is half-maximal. `O=C1C=C(Nc2ccccc2)C(=O)c2ccccc21`: the figures for the IC50 (in [13]; on Nonstructural protein 1) were 6.16 µM (not active) and 81.7 µM (active), respectively. Further, the concentration giving a half-maximal response (EC50) in [14] was 1.26 µM (active). Further, the AC50 with INS1 was 3.97 µM (active); in assay [15] it was > 70 µM (inactive); in [16] it was > 70 µM (inactive); in assay [17] (SK-MEL-5), 2.37 µM (active); in assay [17] (sk-mel-5), 1.93 µM (active); in assay [18] (SK-MEL-5), 1.53 µM (active). Further, the half-maximal activity concentration (AC50) in assay [18] (sk-mel-5) is 1.18 µM (active); in assay [19], > 70 µM (inactive); in assay [19] (A-375) it was 51.5 µM (active); in assay [20] it was > 70 µM (inactive); in assay [21], 7.24 µM (active) and 5.31 µM (active); in [22] it was > 70 µM (inactive). Besides, the AC50 in assay [23] was > 70 µM (inactive).

Consider `CCN(CC)CCNC(C(=O)OCCC(C)C)c1ccccc1` (stereo not given) [CAMYLOFIN], for which the IC50 in [24] was 24.8 µM (inactive); in “cells [25]” it was > 33.3 µM (inactive).
